From patent US20260365684A1, “PHYTOSPHINGOSINE-3,4-CYCLICPHOSPHATE COMPOUND AND PHARMACEUTICAL COMPOSITION COMPRISING THE SAME” (AXCESO BIOPHARMA CO., LTD., priority 2022, published 2026)

Assays:
[1] = system: tyrosine hydroxylase (TH); assay: Tyrosine hydroxylase expression in differentiated SH-SY5Y dopaminergic neurons by western blot; type: cell-based, human; settings: differentiated dopaminergic neurons treated with rotenone (RT); FIG. 6
Experimental: (§1) To analyze the effect on the expression of tyrosine hydroxylase (TH) and α-synuclein as neuron-specific proteins, western blot was performed.
(§2) SH-SY5Y cell line was treated with retinoic acid and 12-O-tetradecanoylphorbol-13-acetate (TPA) to induce differentiation into TH-secreting neurons for 6 days.
(§3) Differentiated dopaminergic neurons were lysed in PRO-PREP (Intronbio), a cell lysis solution containing protease inhibitor cocktail (Gendepot), and electrophoresed in 10% SDS polyacrylamide gels at 20 μg/well. Transfer was performed using PVDF (Merck millipore) as a membrane, and tyrosine hydroxylase antibody, «-synuclein antibody (Cell signaling), and β-actin antibody (Santa Cruz) were used for reaction for more than 2 hours. Protein expression was detected by staining with ECL substrate (Biorad) for development and graphed using the image J program.

α-synuclein = α-synuclein expression in differentiated SH-SY5Y dopaminergic neurons by western blot; type: cell-based, human; settings: differentiated dopaminergic neurons treated with rotenone (RT); FIG. 6
Experimental: as §1, §2, §3

C57BL/6 mice = assay: Survival in sepsis induced by cecal ligation and puncture (CLP); type: in vivo, mouse; settings: 100 ng/mouse (5 μg/kg) at 6 and 16 hours after CLP; FIG. 8
Experimental: C57BL/6 mice aged 7-8 weeks were purchased from Jabio (Suwon, Gyeonggi-do) and sepsis was induced by cecal ligation and puncture (CLP).
Specifically, after anesthesia using 150 mg/kg of ketamine and 17.5 mg/kg of rompun, an abdominal incision of 1-2 cm was made to expose the cecum to induce sepsis. The cecum was ligated with 6-0 silk sutures at the distal end of the ileocecal valve, and a puncture was made with an 18-gauge needle. The perforated cecum was gently squeezed to push out 1-2 cm of feces, and the cecum was then retracted back into the abdominal cavity. The abdomen was then closed and pre-warmed normal saline (2.5 mL/100 g body weight) was injected into the mouse abdominal cavity immediately after the procedure. 6 and 16 hours after CLP treatment, the compound of formula (1a-1) was dissolved in phosphate buffered saline (PBS) and injected intravenously at 100 ng/mouse (5 μg/kg), and survival was examined for 10 days. […] In addition, as a drug-negative control, survival was examined in mice that received only PBS after CLP treatment.
For comparison, we also examined the survival of a control group treated with fingolimod (FTY720), a known S1P modulator, instead of the compound of formula (1a-1) under the same conditions.

SIRT1 = settings: known value; read-out: EC50 as SIRT1 activator; cited from earlier work

In the case of `C=C(C)[C@H]1Cc2c(ccc3c2O[C@@H]2COc4cc(OC)c(OC)cc4[C@@H]2C3=O)O1` [rotenone, reference compound], the “expression of TH” value [1] is reported as “the expression of TH is decreased” and the “expression of α-synuclein” value (α-synuclein) is reported as “the expression of α-synuclein is increased”.
With `CCCCCCCCc1ccc(CCC(N)(CO)CO)cc1` [FTY720, fingolimod, reference compound] the survival (C57BL/6 mice) was “did not improve survival”.
